Assay results from patent publication US20030162815A1, “Thiazolidinedione salt for treatment of diabetes mellitus” (priority 2003, published 2003).

What was measured:
Format in all cases: physicochemical
[1] = Flow properties of the Hydrobromide (Hausner Ratio, bulk density vs tapped bulk density); details: ratio between bulk density and tapped bulk density; product of Example 3
Method: The ratio between the bulk density and the tapped bulk density (Hausner Ratio) of the Hydrobromide was determined using standard methods (“Pharmaceutics—The Science of Dosage Form Design”, editor M. Aulton, 1988, published by: Churchill Livingstone).

[2] = Solid state stability of the Hydrobromide (storage for 1 month, HPLC assay for final content and degradation products); details: product of Example 3
Method: The solid state stability of the drug substance was determined by storing approximately 1.0 g of the material in a glass bottle at i) 40° C./75% Relative Humidity (RH), open exposure, for 1 month and b) at 50° C., closed, for 1 month. The material was assayed by HPLC for final content and degradation products in both cases.

[3] = Solubility of the Hydrobromide in water (visual, confirmed by HPLC assay of a saturated solution); details: thermodynamic from solid, product of Example 3
Text: The visual solubility was confirmed by an HPLC assay of a saturated solution.

Q: Which “Hausner Ratio” value [1] does the source give for `Br.CN(CCOc1ccc(CC2SC(=O)NC2=O)cc1)c1ccccn1` (stereo not drawn) [Hydrobromide, 5-[4-[2-(N-methyl-N-(2-pyridyl)amino)ethoxy]benzyl]thiazolidine-2,4-dione hydrobromide] here?
A: 1.3

Q: And the “Solid state stability: HPLC assay” value ([2]; 40° C./75% RH, open exposure)?
A: 98 % initial

Q: And the “Solid state stability: degradation” value ([2]; 40° C./75% RH, open exposure)?
A: No significant degradation observed

Q: And the “Solid state stability: HPLC assay” value ([2]; 50° C., closed)?
A: 98 % initial

Q: What about the “Solid state stability: degradation” value ([2]; 50° C., closed) of the same compound?
A: No significant degradation observed

Q: And the solubility [3]?
A: 6000 µg/mL
